Values after ≈ are worked out from the molar mass of the structure shown. Active and inactive are the calls of the source. The rule behind the calls is not given here.
Experiments:
HCT-116 [1] = assay: Inhibition of cytokinesis in human HCT116 cells at 1 uM after 24 hrs by propidium iodide/RNase staining-based flow cytometric analysis; assay type: functional, cell-based
HCT-116 [2] = assay: Cytotoxicity against human HCT116 cells assessed as reduction in cell viability after 48 hrs by MTT assay; assay type: functional, cell-based; conditions: HCT-116, 48 h
HCT-116 [3] = assay: Inhibition of cytokinesis in human HCT116 cells at 100 nM after 24 hrs by propidium iodide/RNase staining-based flow cytometric analysis; assay type: functional, cell-based
HCT-116 [4] = assay: Induction of apoptosis in human HCT116 cells at 100 nM after 72 hrs by Annexin V-FITC staining-based flow cytometric analysis; assay type: functional, cell-based
[5] = Solubility of the compound in phosphate buffer of pH 2 after 24 hrs by RP-HPLC analysis; assay type: physicochemical
[6] = Solubility of the compound in phosphate buffer of pH 7.4 after 24 hrs by RP-HPLC analysis; assay type: physicochemical; conditions: for solubility at 24 h: phosphate buffer, pH 7.4
HCT-15 = assay: Cytotoxicity against human HCT15 cells assessed as reduction in cell viability after 48 hrs by MTT assay; assay type: functional, cell-based; conditions: HCT-15, 48 h
HCT-116 [7] = assay: Induction of apoptosis in human HCT116 cells at 1 uM after 72 hrs by Annexin V-FITC/propidium iodide staining-based flow cytometric analysis; assay type: functional, cell-based
Aurora kinase A = target: T1, Aurora kinase A (Homo sapiens, UniProt O14965); assay: Inhibition of recombinant Aurora A (unknown origin) using TAMRA-PKAtide as substrate after 30 mins by fluorescence polarization assay
T1 sequence (O14965 whole entry): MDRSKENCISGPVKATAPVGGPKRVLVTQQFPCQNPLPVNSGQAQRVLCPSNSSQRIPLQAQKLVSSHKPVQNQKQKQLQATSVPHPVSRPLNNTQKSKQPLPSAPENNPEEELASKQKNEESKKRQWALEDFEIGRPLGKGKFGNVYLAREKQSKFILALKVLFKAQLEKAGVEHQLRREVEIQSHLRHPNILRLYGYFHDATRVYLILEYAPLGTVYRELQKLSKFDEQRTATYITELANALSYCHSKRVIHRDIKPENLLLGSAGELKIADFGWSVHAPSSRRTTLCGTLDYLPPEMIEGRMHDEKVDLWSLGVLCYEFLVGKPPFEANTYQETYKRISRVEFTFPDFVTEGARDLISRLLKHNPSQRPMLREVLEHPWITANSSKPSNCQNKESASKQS

Aurora kinase B [8] = target: T2, Aurora kinase B (Homo sapiens, UniProt Q96GD4); assay: Inhibition of recombinant Aurora B (unknown origin) using TAMRA-PKAtide as substrate after 1 hr by fluorescence polarization assay
T2 sequence (Q96GD4 whole entry): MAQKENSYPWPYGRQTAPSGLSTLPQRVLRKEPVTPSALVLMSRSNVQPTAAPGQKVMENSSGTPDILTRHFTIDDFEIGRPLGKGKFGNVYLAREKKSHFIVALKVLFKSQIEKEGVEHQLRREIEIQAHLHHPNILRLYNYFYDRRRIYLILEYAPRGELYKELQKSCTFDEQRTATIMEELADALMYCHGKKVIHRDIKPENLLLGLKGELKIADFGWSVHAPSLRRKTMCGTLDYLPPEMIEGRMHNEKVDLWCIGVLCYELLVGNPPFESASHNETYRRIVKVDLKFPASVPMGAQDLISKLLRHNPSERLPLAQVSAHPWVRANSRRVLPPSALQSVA

Aurora kinase B [9] = target: T2, Aurora kinase B; assay: Inhibition of Aurora B phosphorylation at Thr232 residue in human HCT116 cells over 100 nM after 3 hrs by Western blot method; assay type: cell-based

Structure (SMILES) | IC50 (HCT-116 [2]) | solubility at 24 h [5] | solubility at 24 h [6] | IC50 (HCT-15) | other results
CNC(=O)Nc1sc2c(C(C)C)cc(NS(=O)(=O)c3cccc(C)c3)cc2c1C(N)=O | 0.47 µM | 2.6 µM (≈ 1.2 µg/mL) | 3.6 µM (≈ 1.66 µg/mL) | 1.68 µM | Cytokinesis inhibition (active/inactive call) (HCT-116 [1]): Active; Cytokinesis inhibition (active/inactive call) (HCT-116 [3]): Active; Activity (HCT-116 [4]): Active; Activity (HCT-116 [7]): Active; IC50 (Aurora kinase A): 0.095 µM; IC50 (Aurora kinase B [8]): 0.046 µM
CC(C)c1cc(NS(=O)(=O)c2ccn(C)n2)cc2c(C(N)=O)c(NC(=O)C3CC3)sc12 | 0.76 µM | – | – | 1.26 µM | –
CC(C)c1cc(NS(=O)(=O)C2CCCCC2)cc2c(C(N)=O)c(NC(=O)C3CC3)sc12 | 9.98 µM | – | – | – | –
CCCNS(=O)(=O)Nc1cc(C(C)C)c2sc(NC(=O)NC)c(C(N)=O)c2c1 | 0.41 µM | – | – | 4.71 µM | Cytokinesis inhibition (active/inactive call) (HCT-116 [1]): Active; Cytokinesis inhibition (active/inactive call) (HCT-116 [3]): Active; Activity (HCT-116 [4]): inactive; Activity (HCT-116 [7]): inactive; IC50 (Aurora kinase A): 0.021 µM; IC50 (Aurora kinase B [8]): 0.011 µM
CC(C)c1cc(NS(C)(=O)=O)cc2c(C(N)=O)c(NC(=O)C3CC3)sc12 | 1.39 µM | – | – | – | –
Cc1cc(Nc2cc(N3CCN(C)CC3)nc(Sc3ccc(NC(=O)C4CC4)cc3)n2)[nH]n1 [TOZASERTIB] | – | 120 µM (≈ 55.8 µg/mL) | – | – | solubility ([6]; buffer, pH 7.4, 24 h): 120 µM (≈ 55.8 µg/mL)
CNC(=O)Nc1sc2c(C(C)C)cc(NS(=O)(=O)c3ccn(C)n3)cc2c1C(N)=O | 0.56 µM | 4.2 µM (≈ 1.89 µg/mL) | 6.2 µM (≈ 2.79 µg/mL) | 6.13 µM | Cytokinesis inhibition (active/inactive call) (HCT-116 [1]): Active; Cytokinesis inhibition (active/inactive call) (HCT-116 [3]): Active; Activity (HCT-116 [4]): Active; Activity (HCT-116 [7]): Active; IC50 (Aurora kinase A): 0.005 µM; IC50 (Aurora kinase B [8]): 0.017 µM
CNC(=O)Nc1sc2c(C)cc(NS(=O)(=O)c3ccc(C)s3)cc2c1C(N)=O | 2.36 µM | – | – | – | –
CNC(=O)Nc1sc2c(C(C)C)cc(NS(=O)(=O)c3cc(C)cs3)cc2c1C(N)=O | 0.34 µM | 1.6 µM (≈ 0.747 µg/mL) | 1.4 µM (≈ 0.653 µg/mL) | 1.68 µM | Cytokinesis inhibition (active/inactive call) (HCT-116 [1]): Active; Cytokinesis inhibition (active/inactive call) (HCT-116 [3]): Active; Activity (HCT-116 [4]): Active; Activity (HCT-116 [7]): Active; IC50 (Aurora kinase A): 0.08 µM; IC50 (Aurora kinase B [8]): 0.048 µM
CCCS(=O)(=O)Nc1cc(C(C)C)c2sc(NC(=O)NC)c(C(N)=O)c2c1 | 0.77 µM | 2.8 µM (≈ 1.16 µg/mL) | 3 µM (≈ 1.24 µg/mL) | 4.44 µM | –
CNC(=O)Nc1sc2c(C(C)C)cc(NS(=O)(=O)c3ccc(C)s3)cc2c1C(N)=O | 2.33 µM | – | – | 4.1 µM | –
CNC(=O)Nc1sc2c(C(C)C)cc(NS(=O)(=O)c3ccccc3Cl)cc2c1C(N)=O | 3.41 µM | – | – | – | –
CNC(=O)Nc1sc2c(C(C)C)cc(NS(=O)(=O)c3ccc(C)cc3)cc2c1C(N)=O | 3.8 µM | – | – | – | –
CNC(=O)Nc1sc2c(C3CC3)cc(NS(=O)(=O)c3ccn(C)n3)cc2c1C(N)=O | 1.19 µM | 3.7 µM (≈ 1.66 µg/mL) | 4.8 µM (≈ 2.15 µg/mL) | – | –
CNC(=O)Nc1sc2c(C)cc(NS(=O)(=O)c3cccs3)cc2c1C(N)=O | 0.79 µM | 5.3 µM (≈ 2.25 µg/mL) | 12.8 µM (≈ 5.43 µg/mL) | 2.19 µM | –
Cc1cccc(S(=O)(=O)Nc2cc(C(C)C)c3sc(NC(=O)C4CC4)c(C(N)=O)c3c2)c1 | 9.01 µM | – | – | – | –
CNC(=O)Nc1sc2c(C3CC3)cc(NS(=O)(=O)c3cccs3)cc2c1C(N)=O | 1.53 µM | – | 1.1 µM (≈ 0.496 µg/mL) | – | –

Structure (SMILES) | IC50 (HCT-116 [2]) | solubility at 24 h [5] | solubility at 24 h [6] | IC50 (HCT-15) | other results
CC(C)c1cc(NS(=O)(=O)c2cccs2)cc2c(C(N)=O)c(NC(=O)C3CC3)sc12 | 4.58 µM | – | – | – | –
CCCS(=O)(=O)Nc1cc(C(C)C)c2sc(NC(=O)C3CC3)c(C(N)=O)c2c1 | 6.2 µM | – | – | – | –
CNC(=O)Nc1sc2c(C(C)C)cc(NS(=O)(=O)C(C)C)cc2c1C(N)=O | 2.58 µM | – | – | 8.66 µM | –
CNC(=O)Nc1sc2c(C(C)C)cc(NS(C)(=O)=O)cc2c1C(N)=O | 1.47 µM | – | – | 4.18 µM | –
CNC(=O)Nc1sc2c(C(C)C)cc(NS(=O)(=O)c3ccc(Cl)cc3)cc2c1C(N)=O | 7 µM | – | – | – | –
O=C(O)c1ccc(Nc2ncc3c(n2)-c2ccc(Cl)cc2C(c2c(F)cccc2F)=NC3)cc1 [MLN-8054] | 0.85 µM | 5.8 µM (≈ 2.77 µg/mL) | 98.2 µM (≈ 46.9 µg/mL) | – | Activity (HCT-116 [4]): inactive; Activity (HCT-116 [7]): inactive; inhibition (Aurora kinase B [9]): Active
CNC(=O)Nc1sc2c(C)cc(NS(=O)(=O)c3ccn(C)n3)cc2c1C(N)=O | 9.78 µM | – | – | > 10 µM | –
CNC(=O)Nc1sc2c(C(C)C)cc(NS(=O)(=O)c3ccccc3C)cc2c1C(N)=O | 1.77 µM | – | – | – | –
Cc1cc(Nc2cc(N3CCN(C)CC3)nc(Sc3ccc(NC(=O)C4CC4)cc3)n2)n[nH]1 [TOZASERTIB] | 0.45 µM | – | – | 1.23 µM | Cytokinesis inhibition (active/inactive call) (HCT-116 [1]): Active; Cytokinesis inhibition (active/inactive call) (HCT-116 [3]): Active
CCS(=O)(=O)Nc1cc(C(C)C)c2sc(NC(=O)NC)c(C(N)=O)c2c1 | 0.6 µM | 11.4 µM (≈ 4.54 µg/mL) | 13.6 µM (≈ 5.42 µg/mL) | 4.98 µM | Cytokinesis inhibition (active/inactive call) (HCT-116 [1]): Active; Cytokinesis inhibition (active/inactive call) (HCT-116 [3]): Active; Activity (HCT-116 [4]): inactive; Activity (HCT-116 [7]): inactive; IC50 (Aurora kinase A): 0.024 µM; IC50 (Aurora kinase B [8]): 0.038 µM
CCS(=O)(=O)Nc1cc(C(C)C)c2sc(NC(=O)C3CC3)c(C(N)=O)c2c1 | 2.36 µM | – | – | – | –
CNC(=O)Nc1sc2c(C(C)C)cc(NS(=O)(=O)c3cccc(Cl)c3)cc2c1C(N)=O | 1.02 µM | – | – | 5.66 µM | –
CC(C)c1cc(NS(=O)(=O)c2ccccc2)cc2c(C(N)=O)c(NC(=O)C3CC3)sc12 | 1.39 µM | – | – | – | IC50 (Aurora kinase A): 0.827 µM; IC50 (Aurora kinase B [8]): 0.417 µM
CNC(=O)Nc1sc2c(C(C)C)cc(NS(=O)(=O)c3ccccc3)cc2c1C(N)=O | 0.31 µM | 1.3 µM (≈ 0.581 µg/mL) | 1.7 µM (≈ 0.759 µg/mL) | 0.89 µM | Cytokinesis inhibition (active/inactive call) (HCT-116 [1]): Active; Cytokinesis inhibition (active/inactive call) (HCT-116 [3]): Active; Activity (HCT-116 [4]): Active; Activity (HCT-116 [7]): Active; IC50 (Aurora kinase A): 0.037 µM; IC50 (Aurora kinase B [8]): 0.035 µM
CCCCS(=O)(=O)Nc1cc(C(C)C)c2sc(NC(=O)NC)c(C(N)=O)c2c1 | 0.95 µM | 4.3 µM (≈ 1.83 µg/mL) | 4.6 µM (≈ 1.96 µg/mL) | 4.04 µM | –
CNC(=O)Nc1sc2c(C(C)C)cc(NS(=O)(=O)c3ccco3)cc2c1C(N)=O | 1.3 µM | 3.3 µM (≈ 1.44 µg/mL) | 6.7 µM (≈ 2.92 µg/mL) | – | –
CNC(=O)Nc1sc2c(C)cc(NS(=O)(=O)c3ccco3)cc2c1C(N)=O | 0.95 µM | 1.1 µM (≈ 0.449 µg/mL) | 3.9 µM (≈ 1.59 µg/mL) | 1.51 µM | –
